Active and inactive are the calls of the source. The calls are words filed in the database; no cut-off is given here.
How the values were obtained:
[1] = Cell cycle arrest in human leukemic cells assessed as mitotic block by cytometry; type: functional, cell-based; settings: Leukemia cell
[2] = Displacement of [3H]colchicine from tubulin
K562 = experiment: Cytotoxicity against human K562 cells; type: functional
SW-620 = experiment: Cytotoxicity against human SW620 cells; type: functional
HT-29 = experiment: Cytotoxicity against human HT-29 cells; type: functional
PC-3 = experiment: Cytotoxicity against human PC3 cells; type: functional
MCF7 = experiment: Cytotoxicity against human MCF7 cells; type: functional
[3] = Inhibition of tubulin polymerization
[4] = Cell cycle arrest in human leukemic cells assessed as blockage in G2/M phase by high content cellular analysis; type: functional, cell-based; settings: Leukemia cell
[5] = Displacement of labeled vinblastine from tubulin
Leukemia cell [6] = experiment: Increase in phospho-Histone H3-ser10 level in human leukemic cells by flow cytometry; type: functional, cell-based
Leukemia cell [7] = experiment: Induction of apoptosis in human leukemic cells; type: functional, cell-based

NC(=O)c1ccc(-n2c3c(c4ccccc42)C(=O)CCC3)c(-c2ccccc2)c1
Activity [1]: > 10 µM

CC(=O)c1cn(-c2ccc(C(N)=O)cc2Cl)c2ccccc12
Activity [1]: 0.14 µM

NC(=O)c1ccc(-n2c3c(c4ccccc42)C(=O)CCC3)c(N)c1
Activity [1]: 10 µM

CN[C@H]1CCc2cc(OC)c(OC)c(OC)c2-c2ccc(OC)c(=O)cc21 [DEMECOLCINE]
IC50 [2]: 3580 nM
Activity (K562): 16 nM
Activity (SW-620): 31 nM
Activity (HT-29): 25 nM
Activity (PC-3): 31 nM
Activity (MCF7): 7.8 nM

COc1cc(-n2cc(C(C)=O)c3ccccc32)ccc1C(N)=O
Activity [1]: 0.1 µM

COc1cc2c(c(OC)c1OC)-c1ccc(OC)c(=O)cc1[C@@H](NC(C)=O)CC2
Activity [1]: 0.043 µM

CC[C@]1(O)C[C@@H]2CN(CCc3c([nH]c4ccccc34)[C@@](C(=O)OC)(c3cc4c(cc3OC)N(C)[C@H]3[C@@](O)(C(=O)OC)[C@H](OC(C)=O)[C@]5(CC)C=CCN6CC[C@]43[C@@H]65)C2)C1 [VINBLASTINE]
IC50 [3]: 1150 nM

COc1cc(C(N)=O)ccc1-n1cc(C(C)=O)c2ccccc21
Activity [1]: 0.17 µM

O=C(O)c1ccc(-n2c3c(c4ccccc42)C(=O)CCC3)c(Br)c1
Activity [1]: > 10 µM

COc1cc(C(N)=O)ccc1-n1c2c(c3ccccc31)C(=O)CCC2
Activity [1]: 0.42 µM

C=CCNc1cc(-n2c3c(c4ccccc42)C(=O)CCC3)ccc1C(N)=O
Activity [1]: 0.99 µM

NC(=O)c1ccc(-n2c3c(c4ccccc42)C(=O)CCC3)c(C(F)(F)F)c1
Activity [1]: 0.24 µM

NC(=O)Nc1ccc(-n2c3c(c4ccccc42)C(=O)CCC3)c(Cl)c1
Activity [4]: Active
IC50 [2]: 1610 nM
Activity (K562): 5.5 nM
Activity (SW-620): 15 nM
Activity [1]: 0.12 µM
Activity [5]: inactive
IC50 [3]: 1640 nM
Activity (HT-29): 3.2 nM
Activity (PC-3): 790 nM
Activity (Leukemia cell [6]): Active
Activity (Leukemia cell [7]): Active
Activity (MCF7): 0.87 nM

NC(=O)c1ccc(-n2c3c(c4ccccc42)C(=O)CCC3)c(F)c1
Activity [1]: 5 µM

CC(C)C(=O)c1cn(-c2ccc(C(N)=O)cc2Cl)c2ccccc12
Activity [1]: 5 µM

COc1cc(-n2c3c(c4ccccc42)C(=O)CCC3)ccc1C(N)=O
Activity [1]: > 10 µM

NC(=O)c1ccc(-n2c3c(c4ccccc42)C(=O)CCC3)cc1
Activity (K562): 2000 nM
Activity (SW-620): 1200 nM
Activity [1]: > 10 µM
Activity (HT-29): 4500 nM
Activity (PC-3): 7000 nM
Activity (MCF7): 2300 nM

Cc1cc(C(N)=O)ccc1-n1c2c(c3ccccc31)C(=O)CCC2
Activity [1]: 0.96 µM

NC(=O)c1ccc(-n2c3c(c4ccccc42)C(=O)CCC3)c(Br)c1
Activity [1]: 0.15 µM

NC(=O)c1ccc(-n2c3c(c4ccccc42)C(=O)CCC3)cc1Br
Activity [1]: > 10 µM

CC(=O)c1cn(-c2ccc(C(N)=O)cc2Cl)c2cc(Cl)ccc12
Activity (K562): 0.085 nM
Activity (SW-620): 6.5 nM
Activity [1]: 0.21 µM
Activity (HT-29): 9.3 nM
Activity (PC-3): 2.2 nM
Activity (MCF7): 1.2 nM

N#Cc1ccc(-n2c3c(c4ccccc42)C(=O)CCC3)c(C(F)(F)F)c1
Activity [1]: > 10 µM

CC(=O)Nc1ccc(-n2c3c(c4ccccc42)C(=O)CCC3)c(Cl)c1
Activity [1]: 0.41 µM

NC(=O)c1ccc(-n2c3c(c4ccccc42)C(=O)CCC3)cc1NCc1ccccc1
Activity [1]: 6.2 µM

N=C(NO)c1ccc(-n2c3c(c4ccccc42)C(=O)CCC3)c(Br)c1
Activity [1]: 2 µM

NC(=O)c1ccc(-n2c3c(c4ccccc42)C(=O)CCC3)c(Cl)c1
Activity (K562): 210 nM
Activity (SW-620): 94 nM
Activity [1]: 0.42 µM
Activity (HT-29): 300 nM
Activity (PC-3): 140 nM
Activity (MCF7): 85 nM
